We go through 3 compounds from patent publication US10072096B2, “Modified glycoprotein, protein-conjugate and process for the preparation thereof” (SynAffix B.V., priority 2013, dated 2018).

The series is described as follows: Stability studies of succinimides 67-69 in PBS with or without glutathione, product ratio by LC-MS. The conditions noted are these: 37° C. The class given is physicochemical. On the procedure:
One of succinimide conjugates 67-69 (1 mg) was dissolved in DMF (400 μL) followed by the addition of buffer solution 1, 2 or 3 (800 μL). Buffer solution 1 is PBS, buffer solution 2 is PBS+1 mM glutathione (GSH, reduced) and buffer solution 3 is PBS+1 mM glutathione (oxidized). Final concentration of glutathione (through dilution with DMF) is […]. The samples were incubated at 37° C. and measured in time. Ratio of products was determined by LC-MS.

The mark [1] stands for this setting: 48 h, buffer 2 (PBS+1 mM glutathione, reduced; final 0.71 mM).
[2] abbreviates: 48 h, buffer 3 (PBS+1 mM glutathione, oxidized; final 0.71 mM).
[3] abbreviates: 120 h, buffer 2 (PBS+1 mM glutathione, reduced; final 0.71 mM).
[4] abbreviates: 120 h, buffer 3 (PBS+1 mM glutathione, oxidized; final 0.71 mM).

On to `O=C(CCCN1C(=O)CC(SCC(=O)NCc2ccccc2)C1=O)NCCOCCOCCNC(=O)c1ccc2ccc3cccc4ccc1c2c34` (stereo not drawn) [Compound 67], for which the “Relative ratio: GS adduct (glutathione adduct formed by reverse Michael, then GSH addition)” value (“Relative ratio: GS adduct” below) was 0 (48 h, buffer 1 (PBS)); 41 under setting [1]; 31 under setting [2]; 52 under setting [3]; 59 under setting [4]. Moreover, the “Relative ratio: Hydro pro (hydrolyzed succinimide)” value (“Relative ratio: Hydro pro” for short) is 43 (48 h, buffer 1 (PBS)); 18 under setting [1]; 12 under setting [2]; 38 under setting [3]; 28 under setting [4]. Further, the “Relative ratio: Succinimide (starting succinimide)” value (from here on “Relative ratio: Succinimide”) was 57 (48 h, buffer 1 (PBS)); 41 under setting [1]; 57 under setting [2]; 3 under setting [3]; 9 under setting [4].

As to `O=C(CCCN1C(=O)CC(SCCC(=O)NCc2ccccc2)C1=O)NCCOCCOCCNC(=O)c1ccc2ccc3cccc4ccc1c2c34` (stereo not drawn) [Compound 68], the “Relative ratio: GS adduct” value by setting is: (48 h, buffer 1 (PBS)) 0; under setting [1], 9; under setting [2], 7; (120 h, buffer 1 (PBS)) 0; under setting [3], 17; under setting [4], 16. In addition, the “Relative ratio: Hydro pro” value reads like this: (48 h, buffer 1 (PBS)) 21; under setting [1], 16; under setting [2], 13; (120 h, buffer 1 (PBS)) 53; under setting [3], 41; under setting [4], 35. The “Relative ratio: Succinimide” value (48 h, buffer 1 (PBS)) is on record as 79; the “Relative ratio: Succinimide” value under setting [1] worked out at 75; the “Relative ratio: Succinimide” value under setting [2] is reported as 80; the “Relative ratio: Succinimide” value (120 h, buffer 1 (PBS)) turned out to be 47; the “Relative ratio: Succinimide” value under setting [3] is on record as 42; the “Relative ratio: Succinimide” value under setting [4] came out at 49.

With `O=C(CCCN1C(=O)CC(SCCCC(=O)NCc2ccccc2)C1=O)NCCOCCOCCNC(=O)c1ccc2ccc3cccc4ccc1c2c34` (stereo not drawn) [Compound 69], the “Relative ratio: GS adduct” value amounted to 0 (48 h, buffer 1 (PBS)); 6 under setting [1]; 4 under setting [2]; 0 (120 h, buffer 1 (PBS)); 12 under setting [3]; 10 under setting [4]. The “Relative ratio: Hydro pro” value (48 h, buffer 1 (PBS)) turned out to be 25; the “Relative ratio: Hydro pro” value under setting [1] was found to be 14; the “Relative ratio: Hydro pro” value under setting [2] was found to be 11; the “Relative ratio: Hydro pro” value (120 h, buffer 1 (PBS)) is 63; the “Relative ratio: Hydro pro” value under setting [3] stood at 39; the “Relative ratio: Hydro pro” value under setting [4] was 33. Moreover, the “Relative ratio: Succinimide” value by setting is: (48 h, buffer 1 (PBS)) 75; under setting [1], 79; under setting [2], 85; (120 h, buffer 1 (PBS)) 37; under setting [3], 49; under setting [4], 57.
